31 molecules from US8822503B2, “2-pyridone compounds” (Taisho Pharmaceutical Co., Ltd, priority 2009, dated 2014) can be followed below.

The assay concerns the target T1, human liver GK (Homo sapiens, UniProt P35557).
T1 construct: GST (glutathione S-transferase) (N); made in house; host or cells: E. coli
T1 sequence (P35557 1-466 isoform P35557-2): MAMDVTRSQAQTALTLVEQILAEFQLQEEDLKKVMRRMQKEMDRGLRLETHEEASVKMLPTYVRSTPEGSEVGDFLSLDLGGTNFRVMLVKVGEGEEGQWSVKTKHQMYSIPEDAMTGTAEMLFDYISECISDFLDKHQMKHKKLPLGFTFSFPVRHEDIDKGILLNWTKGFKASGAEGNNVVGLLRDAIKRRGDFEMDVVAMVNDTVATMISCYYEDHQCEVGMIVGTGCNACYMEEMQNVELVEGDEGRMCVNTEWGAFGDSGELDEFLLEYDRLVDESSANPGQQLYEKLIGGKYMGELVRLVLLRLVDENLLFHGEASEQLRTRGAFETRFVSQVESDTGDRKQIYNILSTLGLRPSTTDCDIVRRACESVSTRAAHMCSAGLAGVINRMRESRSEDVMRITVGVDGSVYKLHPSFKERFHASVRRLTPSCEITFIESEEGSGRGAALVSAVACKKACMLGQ
The assay is described as follows: GK activation test. To be noted: test compound concentration needed to activate 50% of maximum activation ability; 4 mM 14C-labeled glucose, 2 mM ATP, room temperature, 20 minutes. In kind it is biochemical. In short, it runs like this:
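GST-tagged human liver GK from E. coli (0.24 μg/well) with 4 mM 14C-glucose, 2 mM ATP in Hepes-KOH pH 7.1, KCl, MgCl2, DTT, 1% DMSO, 20 min room temperature. Labeled glucose 6-phosphate captured on anion resin, eluted and counted. EC50 = concentration giving half of maximal activation.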
Turning to `CCc1ccc(/C(=C\[C@H]2CCC(=O)N2)c2ccc(C3CC3)c(=O)[nH]2)cc1Cl` [Example 4-271, 6-{(E)-1-(3-Chloro-4-ethylphenyl)-2-[(2R)-5-oxopyrrolidin-2-yl]ethenyl}-3-cyclopropylpyridin-2(1H)-one], the EC50 (commonly the concentration that produces a half-maximal response) was 10 to 500 nM.

With `CCc1ccc(C(CC2CCCC2)c2ccc(SC)cc2)[nH]c1=O` (stereo not shown) [Example 2-6, 6-{2-Cyclopentyl-1-[4-(methylsulfanyl)phenyl]ethyl}-3-ethylpyridin-2(1H)-one], the concentration for a half-maximal effect (EC50) lay in the range of 500 to 3000 nM.

Molecule `CCc1ccc(/C(=C/C2CCCC2)c2ccc(OC)c(Cl)c2)[nH]c1=O` [Example 1-16, 6-[(E)-1-(3-Chloro-4-methoxyphenyl)-2-cyclopentylethenyl]-3-ethylpyridin-2(1H)-one] yielded an EC50 of 10 to 500 nM.

Take `CSc1ccc(/C(=C\C2CCN(C(C)=O)CC2)c2ccc(C3CC3)c(=O)[nH]2)cc1` [Example 4-42, 6-{(E)-2-(1-Acetylpiperidin-4-yl)-1-[4-(methylsulfanyl)phenyl]ethenyl}-3-cyclopropylpyridin-2(1H)-one]: the EC50 fell in the range of 3000 to 10000 nM.

For the molecule `CC(C)(C)c1ccc(/C(=C\[C@H]2CCC(=O)N2)c2ccc(OC(F)F)c(=O)[nH]2)cc1` [Example 4-165, 6-{(E)-1-(4-tert-Butylphenyl)-2-[(2R)-5-oxopyrrolidin-2-yl]ethenyl}-3-(difluoromethoxy)pyridin-2(1H)-one], the EC50 fell in the range of 10 to 500 nM.

As to `CCc1ccc(/C(=C\[C@H]2CCC(=O)N2)c2ccc(Cl)c(=O)[nH]2)cc1` [Example 4-14, 3-Chloro-6-{(E)-1-(4-ethylphenyl)-2-[(2R)-5-oxopyrrolidin-2-yl]ethenyl}pyridin-2(1H)-one], the EC50 lay within 500 to 3000 nM.

`CSc1ccc(/C(=C\[C@H]2CCC(=O)N2)c2ccc(C3CC3)c(=O)[nH]2)cc1` [Example 4-1, 3-Cyclopropyl-6-{(E)-1-[4-(methylsulfanyl)phenyl]-2-[(2R)-5-oxopyrrolidin-2-yl]ethenyl}pyridin-2(1H)-one] came in with an EC50 of 10 to 500 nM.

In turn, `O=C1CC[C@H](/C=C(\c2ccc(OCCCCN3CCCC3)c(Cl)c2)c2ccc(Cl)c(=O)[nH]2)N1` [Example 4-64, 3-Chloro-6-{(E)-1-{3-chloro-4-[4-(pyrrolidin-1-yl)butoxy]phenyl}-2-[(2R)-5-oxopyrrolidin-2-yl]ethenyl}pyridin-2(1H)-one] returned an EC50 of 10 to 500 nM.

Regarding `CN(C)c1ccc(/C(=C/[C@H]2CCC(=O)N2)c2ccc(C(C)(C)C)cc2)[nH]c1=O` [Example 4-174, 6-{(E)-1-(4-tert-Butylphenyl)-2-[(2R)-5-oxopyrrolidin-2-yl]ethenyl}-3-(dimethylamino)pyridin-2(1H)-one], the EC50 was 10 to 500 nM.

Turning to `O=C1CC[C@H](/C=C(\c2ccc(OC(F)F)cc2)c2ccc(C3CC3)c(=O)[nH]2)N1` [Example 4-127, 3-Cyclopropyl-6-{(E)-1-[4-(difluoromethoxy)phenyl]-2-[(2R)-5-oxopyrrolidin-2-yl]ethenyl}pyridin-2(1H)-one], the 50% effective concentration (EC50) was 10 to 500 nM.

The molecule `Cc1ccc(/C(=C/[C@H]2CCC(=O)C2)c2ccc(SC3CC3)cc2)[nH]c1=O` [Example 1-60, 6-{(E)-1-[4-(Cyclopropylsulfanyl)phenyl]-2-[(1S)-3-oxocyclopentyl]ethenyl}-3-methylpyridin-2(1H)-one] gave an EC50 of 10 to 500 nM.

In turn, `O=C1CC[C@H](/C=C(\c2ccc(OC3CC3)c(Cl)c2)c2ccc(C3CC3)c(=O)[nH]2)N1` [Example 4-269, 6-{(E)-1-[3-Chloro-4-(cyclopropyloxy)phenyl]-2-[(2R)-5-oxopyrrolidin-2-yl]ethenyl}-3-cyclopropylpyridin-2(1H)-one] registered an EC50 of 10 to 500 nM.

With `O=C1CC[C@H](CC(c2ccc(C(F)F)c(Cl)c2)c2ccc(C3CC3)c(=O)[nH]2)N1` (single isomer, unassigned) [Example 4-226], the 50% effective concentration (EC50) is 3000 to 10000 nM.

In turn, `CCCc1ccc(C(C[C@H]2CCC(=O)N2)c2ccc(Cl)c(=O)[nH]2)cc1` (single isomer, unassigned) [Example 4-312] had an EC50 of 500 to 3000 nM.

Turning to `O=C1CC[C@H](/C=C(\c2ccc(Oc3ccccc3)cc2)c2ccc(Cl)c(=O)[nH]2)N1` [Example 4-152, 3-Chloro-6-[(E)-2-[(2R)-5-oxopyrrolidin-2-yl]-1-(4-phenoxyphenyl)ethenyl]pyridin-2(1H)-one], the concentration giving a half-maximal response (EC50) was in the range of 10 to 500 nM.

`O=C1CC[C@H](/C=C(\c2ccc(Cl)c(OC(F)(F)F)c2)c2ccc(C3CC3)c(=O)[nH]2)N1` [Example 4-129, 6-{(E)-1-[4-Chloro-3-(trifluoromethoxy)phenyl]-2-[(2R)-5-oxopyrrolidin-2-yl]ethenyl}-3-cyclopropylpyridin-2(1H)-one]: the 50% effective concentration (EC50) was 500 to 3000 nM.

Regarding `CCc1ccc(/C(=C/[C@H]2CCC(=O)C2)c2ccc(SC)c(Cl)c2)[nH]c1=O` [Example 1-69, 6-{(E)-1-[3-Chloro-4-(methylsulfanyl)phenyl]-2-[(1S)-3-oxocyclopentyl]ethenyl}-3-ethylpyridin-2(1H)-one], the EC50 fell in the range of 10 to 500 nM.

The molecule `CCN(CC)CCCNc1ccc(/C(=C\C2CCCC2)c2ccc(C(F)(F)F)c(=O)[nH]2)cc1` [Example 1-43, 6-[(E)-2-Cyclopentyl-1-(4-{[3-(diethylamino)propyl]amino}phenyl)ethenyl]-3-(trifluoromethyl)pyridin-2(1H)-one] gave an EC50 of 3000 to 10000 nM.

Turning to `O=c1[nH]c(/C(=C/[C@H]2CC[C@H](O)CC2)c2ccc(S(=O)(=O)C3CC3)cc2)ccc1C(F)(F)F` [Example 1-91, 6-[(E)-1-[4-(Cyclopropylsulfonyl)phenyl]-2-(trans-4-hydroxycyclohexyl)ethenyl]-3-(trifluoromethyl)pyridin-2(1H)-one], the EC50 lay in the range of 500 to 3000 nM.

Regarding `O=C1CC[C@H](CC(c2ccc(C(F)F)c(Cl)c2)c2ccc(C3CC3)c(=O)[nH]2)N1` (single isomer, unassigned) [Example 4-225], the EC50 was 10 to 500 nM.

In the case of `CC(C)(C)c1ccc(C(C[C@H]2CCC(=O)N2)c2ccc(C(F)(F)F)c(=O)[nH]2)cc1` (single isomer, unassigned) [Example 4-315], the EC50 was 3000 to 10000 nM.

For `CC(C)(C)c1ccc(/C(=C\[C@@H]2CCC(=O)N2)c2ccc(Cl)c(=O)[nH]2)cc1` [Example 4-75, 6-{(E)-1-(4-tert-Butylphenyl)-2-[(2S)-5-oxopyrrolidin-2-yl]ethenyl}-3-chloropyridin-2(1H)-one], the EC50 was in the range of 3000 to 10000 nM.

Molecule `NC(=O)c1ccc(/C(=C\[C@H]2CCC(=O)N2)c2ccc(Cl)c(=O)[nH]2)cc1` [Example 4-160, 4-{(E)-1-(5-Chloro-6-oxo-1,6-dihydropyridin-2-yl)-2-[(2R)-5-oxopyrrolidin-2-yl]ethenyl}benzamide] returned an EC50 of 3000 to 10000 nM.

Take `CC(C)Oc1ccc(C(C[C@H]2CCC(=O)N2)c2ccc(C3CC3)c(=O)[nH]2)cc1Cl` (single isomer, unassigned) [Example 4-323]: the EC50 was in the range of 3000 to 10000 nM.

`O=C1CC[C@H](/C=C(\c2ccc(S(=O)(=O)Cc3ccccc3)cc2)c2ccc(C3CC3)c(=O)[nH]2)N1` [Example 4-291, 6-{(E)-1-[4-(Benzylsulfonyl)phenyl]-2-[(2R)-5-oxopyrrolidin-2-yl]ethenyl}-3-cyclopropylpyridin-2(1H)-one] came in with an EC50 of 10 to 500 nM.

The molecule `CCOc1ccc(/C(=C\[C@H]2CCC(=O)N2)c2ccc(Cl)c(=O)[nH]2)cc1F` [Example 4-49, 3-Chloro-6-{(E)-1-(4-ethoxy-3-fluorophenyl)-2-[(2R)-5-oxopyrrolidin-2-yl]ethenyl}pyridin-2(1H)-one] gave a concentration giving a half-maximal response (EC50) of 500 to 3000 nM.

`CC(C)(C)c1ccc(/C(=C\[C@H]2CCC(=O)N2)c2ccc(Oc3ccc(Cl)cc3)c(=O)[nH]2)cc1` [Example 4-188, 6-{(E)-1-(4-tert-Butylphenyl)-2-[(2R)-5-oxopyrrolidin-2-yl]ethenyl}-3-(4-chlorophenoxy)pyridin-2(1H)-one] yielded an EC50 of 500 to 3000 nM.

`CCN(CC)CCCSc1ccc(/C(=C\[C@H]2CCC(=O)C2)c2ccc(C(F)(F)F)c(=O)[nH]2)cc1Cl` [Example 1-84, 6-{(E)-1-(3-Chloro-4-{[3-(diethylamino)propyl]sulfanyl}phenyl)-2-[(1S)-3-oxocyclopentyl]ethenyl}-3-(trifluoromethyl)pyridin-2(1H)-one] had an EC50 of 500 to 3000 nM.

With `CCc1ccc(/C(=C\[C@H]2CCCN2C(C)=O)c2ccc(Cl)c(=O)[nH]2)cc1` [Example 4-47, 6-[(E)-2-[(2R)-1-Acetylpyrrolidin-2-yl]-1-(4-ethylphenyl)ethenyl]-3-chloropyridin-2(1H)-one], the EC50 was 500 to 3000 nM.

The molecule `O=C1CC[C@H](/C=C(/c2ccc(Cl)c(=O)[nH]2)c2ccc(C(F)(F)F)cc2F)N1` [Example 4-262, 3-Chloro-6-{(E)-1-[2-fluoro-4-(trifluoromethyl)phenyl]-2-[(2R)-5-oxopyrrolidin-2-yl]ethenyl}pyridin-2(1H)-one] showed an EC50 of 500 to 3000 nM.

Turning to `CSc1ccc([C@]2(c3ccc(C)c(=O)[nH]3)C[C@@H]2C2CCCC2)cc1` (relative stereo) [Example 3-3, trans-6-{2-Cyclopentyl-1-[4-(methylsulfanyl)phenyl]cyclopropyl}-3-methylpyridin-2(1H)-one], the EC50 lay within 500 to 3000 nM.
